# Assay results: patent publication US20260130906A1, “THERAPY COMPRISING ANTI-CD19 ANTIBODY AND SUMO-ACTIVATING ENZYME INHIBITOR” (TAKEDA PHARMACEUTICAL COMPANY LIMITED, priority 2021, published 2026)
# Legend:
# SUMO-activating enzyme = SUMO-activating enzyme (Homo sapiens, UniProt Q9UBT2); test: Biochemical assays of SUMO-activating enzyme inhibition
# From the text: (§1) SAE inhibitors, as disclosed herein, are described, for example, in US 2016/0009744 and U.S. Pat. No. 9,695,154 which is hereby incorporated by reference in its entirety. They may be prepared by methods known to one skilled in the art and/or according to the methods described in US 2016/0009744 and U.S. Pat. No. 9,695,154 . . . . Central to the mechanism of action of useful SAE inhibitors, such as Compound I-263a, in combinations and methods of the present disclosure is production of type 1 IFNs and induction of an innate immune response with activation of both natural killer (NK) cells and macrophages.
# [1] = tested on: SUMO-activating enzyme and SUMOylation; test: Inhibition of SAE and SUMOylation in cultured tumor cell lines; type: cell-based; details: cultured mouse and human tumor cell lines
# From the text: as §1
# [2] = tested on: WSU-DLCL2 human xenograft tumor model; test: Study 3: WSU-DLCL2 human xenograft tumor model; type: in vivo, CB17 SCID mice; details: for GRI % / Tumor volume on Day 21 (±SEM): WSU-DLCL2; for GRI %: Day 21, vs vehicle; for Tumor volume on Day 21 (±SEM): in mm³ (unit assumed); for tumor growth inhibition as single agents (in words): WSU-DLCL2 human DLBCL mouse model
# Protocol: The differences in the tumor growth trends over time between pairs of treatment groups were assessed by fitting each animal's data to a simple exponential growth model and comparing the mean growth rates of the two groups, as described in more detail below. The difference in the growth rates was summarized by the GRI, which is the reduction in growth rate experienced by the treatment group relative to that of the reference group, expressed as a fraction of the vehicle growth rate.
# A GRI greater than 100% is interpreted as tumor regression when the vehicle group is the same as the reference group. A negative value of the GRI means that the tumors in the treatment group grew faster than the tumors in the reference group. Statistical significance was determined using an unpaired t-test.
# Low tumor volumes can cause problems with the data analysis, so all measurements below 25 cubic mm (including 0 values) were excluded from the analysis. After this exclusion step, the tumor volume was assumed to follow an exponential growth model. […]
# WSU-DLCL2 is a human DLBCL cell line. A WSU-DLCL2 human xenograft tumor model was generated by subcutaneous inoculation in the flank of 8 week old female CB17 SCID mice (Charles River Laboratories, Wilmington, MA) with 4.0×10^6 WSU-DLCL2 cells (cell suspension in 0.1 mL RPMI 1640 media). When the mean tumor volume reached approximately 200 mm^3, the animals were randomized into one vehicle control group and seven treatment groups (n=7/group) as described in Table 3a. Mice were then dosed with 20% HPβCD or Compound I-263a and/or tafasitamab over a 3 week period. In the combination treatment groups, I-263a was administered first, followed immediately by the administration of tafasitamab. Tumor growth and body weight were measured twice per week during the treatment and post-treatment periods, and mice were humanely euthanized once they had reached their humane endpoint. Tumors were measured using Vernier calipers and volumes were calculated using standard equation: V=W^2×L/2, where V=volume, W=width, and L=length for the tumor.
# A 0.8625 mg/mL stock solution of I-263a was formulated weekly in 20% HPβCD and administered intravenously (IV) based on an average body weight using a 0.2 mL dosing volume. Final dose of I-263a received was 7.5 mg/kg. I-263a was administered on a BIW schedule for 3 weeks (Days 1, 4, 8, 11, 15, 18). Tafasitamab was formulated prior to each injection in 0.9% saline at 0.6 mg/mL and 2.0 mg/mL. Final dose of tafasitamab received was 3, 10, or 20 mg/kg based on average body weight. Tafasitamab was administered intraperitoneally (IP) on a BIW schedule for 3 weeks (Days 1, 4, 8, 11, 15, 18). For the 3 mg/kg dose level, 0.1 mL of the 0.6 mg/mL solution was administered. For the 10 mg/kg and 20 mg/kg dose levels, dosing volumes of the 2.0 mg/mL solution were 0.1 mL and 0.2 mL, respectively. The vehicle group received IV treatment with the vehicle for I-263a (20% HPβCD) on a BIW schedule for three weeks (Days 1, 4, 8, 11, 15, 18).
# Statistical analysis for growth rate inhibition was performed on data up to and including Day 21.
# SUMO-activating enzyme, sequence (Q9UBT2 whole entry): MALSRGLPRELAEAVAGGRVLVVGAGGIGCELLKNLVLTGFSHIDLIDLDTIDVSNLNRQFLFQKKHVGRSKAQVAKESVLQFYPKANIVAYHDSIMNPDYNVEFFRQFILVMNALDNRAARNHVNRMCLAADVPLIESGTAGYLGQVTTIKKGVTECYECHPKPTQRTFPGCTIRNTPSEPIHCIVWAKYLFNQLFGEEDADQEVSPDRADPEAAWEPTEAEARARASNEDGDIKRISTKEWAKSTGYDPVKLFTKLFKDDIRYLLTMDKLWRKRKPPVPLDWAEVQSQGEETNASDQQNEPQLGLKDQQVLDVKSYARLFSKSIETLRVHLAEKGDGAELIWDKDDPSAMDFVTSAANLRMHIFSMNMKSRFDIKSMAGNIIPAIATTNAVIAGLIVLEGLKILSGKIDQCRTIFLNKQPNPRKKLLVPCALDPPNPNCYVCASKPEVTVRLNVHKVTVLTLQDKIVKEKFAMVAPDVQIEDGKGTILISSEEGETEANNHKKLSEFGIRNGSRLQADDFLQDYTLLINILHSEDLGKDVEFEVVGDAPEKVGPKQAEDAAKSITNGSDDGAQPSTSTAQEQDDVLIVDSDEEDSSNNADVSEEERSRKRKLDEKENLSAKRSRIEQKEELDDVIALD
# SUMO-activating enzyme, sequence (Q9UBE0 whole entry partner): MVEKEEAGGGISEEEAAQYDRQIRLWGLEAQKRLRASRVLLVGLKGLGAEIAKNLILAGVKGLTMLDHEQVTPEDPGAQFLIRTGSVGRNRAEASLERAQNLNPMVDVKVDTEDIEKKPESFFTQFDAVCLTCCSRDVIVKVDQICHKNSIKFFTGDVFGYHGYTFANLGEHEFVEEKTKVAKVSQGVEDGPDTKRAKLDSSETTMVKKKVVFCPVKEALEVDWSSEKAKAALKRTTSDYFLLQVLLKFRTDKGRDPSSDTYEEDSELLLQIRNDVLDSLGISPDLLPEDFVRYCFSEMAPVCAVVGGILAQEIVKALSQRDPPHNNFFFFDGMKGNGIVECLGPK
# SUMO-activating enzyme, sequence (P63165 1-97 partner limits assumed): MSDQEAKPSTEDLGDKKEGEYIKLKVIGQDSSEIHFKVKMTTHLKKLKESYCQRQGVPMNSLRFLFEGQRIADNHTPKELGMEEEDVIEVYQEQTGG
Compound,"inhibition of SUMO-activating enzyme activity (SUMO-activating enzyme; mechanism-based, covalent adduct with SUMO)","selectivity for SUMO-activating enzyme (SUMO-activating enzyme; over ubiquitin-activating enzyme, Nedd8-activating enzyme, autophagy related 7 enzyme)",inhibition of SUMO-activating enzyme and SUMOylation [1],"GRI % ([2]; I-263a 7.5 mg/kg IV BIW, 7.5 mg/kg) [%]","GRI % ([2]; I-263a 7.5 mg/kg IV BIW, listed as TAK-981)",Tumor volume on Day 21 (±SEM) ([2]; I-263a 7.5 mg/kg IV BIW 3 weeks),tumor growth inhibition as single agents (in words) [2],GRI % ([2]; tafasitamab 3 mg/kg IP BIW) [%],GRI % ([2]; tafasitamab 10 mg/kg IP BIW) [%],"GRI % ([2]; tafasitamab 10 mg/kg IP BIW, listed as tafasitamab)",GRI % ([2]; tafasitamab 20 mg/kg IP BIW) [%],"GRI % ([2]; tafasitamab 20 mg/kg IP BIW, listed as tafasitamab)",Tumor volume on Day 21 (±SEM) ([2]; tafasitamab 3 mg/kg IP BIW 3 weeks),Tumor volume on Day 21 (±SEM) ([2]; tafasitamab 10 mg/kg IP BIW 3 weeks),Tumor volume on Day 21 (±SEM) ([2]; tafasitamab 20 mg/kg IP BIW 3 weeks)
"Cc1sc(C(=O)c2cncnc2N[C@@H]2C[C@H](COS(N)(=O)=O)[C@@H](O)C2)cc1[C@@H]1NCCc2ccc(Cl)cc21 [Compound I-263a, [(1R,2S,4R)-4-{[5-({4-[(1R)-7-chloro-1,2,3,4-tetrahydroisoquinolin-1-yl]-5-methyl-2-thienyl}carbonyl)pyrimidin-4-yl]amino}-2-hydroxycyclopentyl]methyl sulfamate]",potently inhibits enzyme activity,Strong selectivity,Selective and potent inhibition,14,did not result in significant growth rate inhibition,1410.7 ± 155.8,do not show significant or extensive tumor growth inhibition,,,,,,,,
"Tafasitamab: humanized monoclonal antibody that targets the antigen CD19, engineered in the IgG Fc-region to enhance ADCC; sequences in Table 1",,,,,,,do not show significant or extensive tumor growth inhibition,20,12,did not result in significant growth rate inhibition,2,did not result in significant growth rate inhibition,1197.3 ± 168.3,1494.3 ± 126.3,1519.0 ± 110.8
